Measurements from US8580814B2, “Methods of using (+)-1,4-dihydro-7-[(3S,4S)-3-methoxy-4-(methylamino)-1-pyrrolidinyl]-4- oxo-1-(2-thiazolyl)-1,8-naphthyridine-3-carboxylic acid for treatment of cancer” (priority 2006, dated 2013).
Several values for one entry are separate records, joined by “and”; a condition that tells them apart may be missing. Equal values may be shown once.

Columns and labels:
refractory solid tumors = assay: Clinical activity in patients with advanced solid tumors; assay type: in vivo, human; design: key to Best Response: partial response (PR); stable disease SD; Partial/Minor Responses (PR/MR); settings: for Iliac node: Baseline 5.5; for RMLL Lung / Rectosigmoid: Baseline 2.5; for RML Lung: Baseline 3.9; for RUL Lung: Baseline 4.7; for Liver met: Baseline 7.4
Procedure: The administered dose of SNS-595 can be delivered as a single dose such as, for example, an IV push of 10-15 minutes duration (e.g. a single bolus injection) or over time such as, for example, a 24-hour period (e.g., continuous infusion over time or divided bolus doses over time) and is repeated as necessary, for example, until the patient experiences stable disease or regression, or until the patient experiences disease progression or unacceptable toxicity. For example, stable disease for solid tumors generally means that the perpendicular diameter of measurable lesions has not increased by 25% or more from the last measurement. See e.g., Response Evaluation Criteria in Solid Tumors (RECIST) Guidelines, Journal of the National Cancer Institute 92(3): 205-216 (2000). Stable disease or lack thereof is determined by methods known in the art such as evaluation of patient symptoms, physical examination, visualization of the tumor that has been imaged using X-ray, CAT, PET, or MRI scan and other commonly accepted evaluation modalities.
SNS-595 was administered to patients with advanced solid cancers as an IV infusion over 10 minutes on 2 schedules. In the first schedule (A), a weekly dose of SNS-595 was administered for three weeks followed by at least 7 days off (qwk×3). In the second schedule (B), a dose of SNS-595 was administered once every three weeks (q3wk).
In both schedules, the starting dose of SNS-595 was 3 mg/m^2, and doses were escalated by sequential cohorts of 3. The doses were doubled until the first related adverse event at or above Grade 2 or until the first abnormal lab value. The doses were then escalated by a modified Fibonacci schema.
In study A, 21 patients (9 male, 12 female) were treated in 6 cohorts (dose range 3-24 mg/m^2/wk). In study B, 41 (25 male, 16 female) patients were treated in 9 cohorts (dose range 3-75 mg/m^2/wk). The median ages were 61 yrs (Study A) and 59 yrs (Study B), sex 12F/9M (Study A), 16F/25M (Study B), all patients had baseline European Cooperative Oncology Group Performance Status (ECOG PS) 0-2. Patient eligibility included refractory solid tumors and adequate organ function.

p73 null cells = assay: SNS-595 sensitivity in p73 null vs p73 containing cells; assay type: cell-based; settings: p73 null cells as compared to p73 containing cells
HCT116 cells = assay: High content screening and microscopy, nuclear foci (gH2AX, pATM); assay type: cell-based; settings: HCT116 cells dosed for 6 hour
Procedure: Cells were plated as sub-confluent populations and allowed to grow for 36 hours. Cells were then treated with the compound at the given concentration for the given time period. Cells were fixed using 4% formaldehyde and permeabilized with 0.1% triton. Cells were exposed to primary antibodies for 1 hour at 25° C. at a 1:100 dilution in 10% FBS/PBS (anti-pATM—Chemicon, anti-gH2AX-Cell Signaling Technology). Cells were exposed to secondary antibodies for 1 hour at 25° C. at a 1:100 dilution in 10% FBS/PBS. Hoechst staining was carried out in 10% FBS/PBS at 500 ng/ml concentrations. High content screening was carried out on a Cellomics Arrayscan instrument using the Spot Detector algorithm. […] Cells were then fixed and analyzed for protein phosphorylation state (gH2AX images obtained using a fluorescence microscope, pATM images obtained with the ArrayScan VTi).

[1] = system: ATRFLOX (HCT-116 cells with 6 fold lower ATR levels); assay: Timing of apoptosis (caspase-3 activation); assay type: cell-based; settings: Cell Line ATRFLOX; dosed at 30 fold above the EC50 for cytotoxicity
[2] = system: HCT-116 cells with 6 fold lower ATR levels; assay: MTT assay, sensitization (ATRFLOX); assay type: cell-based; settings: compound 72 hours
Procedure: Cells were then incubated with 5% MTT for 1-2 hours and lysed. MTT was colorimetrically read at 570 nm and EC50's were determined using linear regression analysis.
Sensitization was carried out with various chemical treatments.

[3] = both studies, advanced solid cancers
[4] = initial dosage 3 mg/m^2, q3wk, Lung
[5] = initial dosage 6 mg/m^2, q3wk, Renal Cell
[6] = initial dosage 6 mg/m^2, qwk x3, Renal Cell
[7] = initial dosage 12 mg/m^2, q3wk, Lung
[8] = initial dosage 12 mg/m^2, qwk x3, Leiomyosarcoma
[9] = initial dosage 12 mg/m^2, qwk x3, Melanoma
[10] = initial dosage 15 mg/m^2, qwk x3, Mesothelioma (two patients)
[11] = initial dosage 15 mg/m^2, qwk x3, Nasopharyngeal
[12] = initial dosage 24 mg/m^2, q3wk, Adenocarcinoma (unknown origin)
[13] = initial dosage 24 mg/m^2, qwk x3, Salivary Gland
[14] = initial dosage 36 mg/m^2, q3wk, Colon
[15] = initial dosage 36 mg/m^2, q3wk, Ovarian
[16] = initial dosage 48 mg/m^2, q3wk, Lung
[17] = initial dosage 48 mg/m^2, q3wk, Ovarian (two patients)
[18] = initial dosage 60 mg/m^2, q3wk, Neuroendocrine
[19] = initial dosage 60 mg/m^2, q3wk, Ovarian
[20] = initial dosage 75 mg/m^2, q3wk, Müllerian

## CN[C@H]1CN(c2ccc3c(=O)c(C(=O)O)cn(-c4nccs4)c3n2)C[C@@H]1OC [SNS-595, (+)-1,4-dihydro-7-[(3S,4S)-3-methoxy-4-(methylamino)-1-pyrrolidinyl]-4-oxo-1-(2-thiazolyl)-1,8-naphthyridine-3-carboxylic acid]
Refractory solid tumors; PR patient, Ovarian, C2, Baseline 1.7
  P-aortic node: 1.6 cm
Refractory solid tumors; PR patient, Ovarian, C2, Baseline 2.4
  Aortic node: 2.0 cm
Refractory solid tumors; PR patient, Ovarian, C2
  Iliac node: 5.0 cm
Refractory solid tumors; PR patient, Ovarian, C2, Baseline 467
  CA125: 272 U/mL
Refractory solid tumors; PR patient, Ovarian, C4, Baseline 1.7
  P-aortic node: 1.5 cm
Refractory solid tumors; PR patient, Ovarian, C4, Baseline 2.4
  Aortic node: 2.2 cm
Refractory solid tumors; PR patient, Ovarian, C4
  Iliac node: 4.7 cm
Refractory solid tumors; PR patient, Ovarian, C4, Baseline 467
  CA125: 176 U/mL
Refractory solid tumors; PR patient, Ovarian, C6, Baseline 1.7
  P-aortic node: 1.3 cm
Refractory solid tumors; PR patient, Ovarian, C6, Baseline 2.4
  Aortic node: 2.0 cm
Refractory solid tumors; PR patient, Ovarian, C6
  Iliac node: 3.9 cm
Refractory solid tumors; PR patient, Ovarian, C6, Baseline 467
  CA125: 120 U/mL
Refractory solid tumors; SD (MR) patient, Müllerian, C2
  RMLL Lung: 2.5 cm
  RML Lung: 3.9 cm
  RUL Lung: 4.5 cm
Refractory solid tumors; SD (MR) patient, Müllerian, C4
  RMLL Lung: 2.5 cm
  RML Lung: 3.7 cm
  RUL Lung: 4.5 cm
Refractory solid tumors; SD (MR) patient, Müllerian, C6
  RMLL Lung: 2.6 cm
  RML Lung: 2.4 cm
  RUL Lung: 5.0 cm
Refractory solid tumors; SD (MR) patient, Nasopharyngeal, C2, Baseline 1.1
  Left upper lobe nodule: 1.0 cm
Refractory solid tumors; SD (MR) patient, Nasopharyngeal, C2, Baseline 1.5
  Rt upper lobe nodule 2: 1.3 cm
Refractory solid tumors; SD (MR) patient, Nasopharyngeal, C2, Baseline 1.6
  Lingular nodule: 1.5
Refractory solid tumors; SD (MR) patient, Nasopharyngeal, C2, Baseline 2.3
  Rt upper lobe nodule 1: 1.5 cm
Refractory solid tumors; SD (MR) patient, Ovarian (first), C2, Baseline 1.7
  Aortic node: 1.5 cm
Refractory solid tumors; SD (MR) patient, Ovarian (first), C2, Baseline 1.8
  P-aortic node: 1.1 cm
Refractory solid tumors; SD (MR) patient, Ovarian (first), C2
  Liver met: 6.9 cm
Refractory solid tumors; SD (MR) patient, Ovarian (first), C2, Baseline 567
  CA125: 811 U/mL
Refractory solid tumors; SD (MR) patient, Ovarian (first), C4, Baseline 1.7
  Aortic node: 1.2 cm
Refractory solid tumors; SD (MR) patient, Ovarian (first), C4, Baseline 1.8
  P-aortic node: 1.1 cm
Refractory solid tumors; SD (MR) patient, Ovarian (first), C4
  Liver met: 5.7 cm
Refractory solid tumors; SD (MR) patient, Ovarian (first), C4, Baseline 567
  CA125: 419 U/mL
Refractory solid tumors; SD (MR) patient, Ovarian (first), C6, Baseline 1.7
  Aortic node: 1.8 cm
Refractory solid tumors; SD (MR) patient, Ovarian (first), C6, Baseline 1.8
  P-aortic node: 1.2 cm
Refractory solid tumors; SD (MR) patient, Ovarian (first), C6
  Liver met: 5.7 cm
Refractory solid tumors; SD (MR) patient, Ovarian (first), C6, Baseline 567
  CA125: 274 U/mL
Refractory solid tumors; SD (MR) patient, Ovarian (second)
  3 mets: 3 mets unchanged
Refractory solid tumors; SD (MR) patient, Ovarian (second), C2
  Rectosigmoid: 0.0 cm
Refractory solid tumors; SD (MR) patient, Ovarian (second), C2, Baseline 50
  CA125: 18 U/mL
Refractory solid tumors; SD (MR) patient, Ovarian (second), C4
  Rectosigmoid: 0.0 cm
Refractory solid tumors; SD (MR) patient, Ovarian (second), C4, Baseline 50
  CA125: 16 U/mL
Refractory solid tumors; SD (MR) patient, Ovarian (second), C6
  Rectosigmoid: 0.0 cm
Refractory solid tumors; SD (MR) patient, Ovarian (second), C6, Baseline 50
  CA125: 15 U/mL
Refractory solid tumors; Table 11, Müllerian
  Best Response: SD (MR)
Refractory solid tumors; Table 11, Nasopharyngeal
  Best Response: SD (MR)
Refractory solid tumors; Table 11, Ovarian (three patients)
  Best Response: SD (MR) and PR
Refractory solid tumors; [3]
  patients that achieved partial responses: two patients
  patients that achieved stable disease for over sixteen weeks: seventeen patients
Refractory solid tumors; [4]
  Best Response: SD
  Weeks on Therapy: 18 Weeks
Refractory solid tumors; [5]
  Best Response: SD
  Weeks on Therapy: 18 Weeks
Refractory solid tumors; [6]
  Best Response: SD
  Weeks on Therapy: 16 Weeks
Refractory solid tumors; [7]
  Best Response: SD
  Weeks on Therapy: 53 Weeks
Refractory solid tumors; [8]
  Best Response: SD
  Weeks on Therapy: 16 Weeks
Refractory solid tumors; [9]
  Best Response: SD
  Weeks on Therapy: 16 Weeks
Refractory solid tumors; [10]
  Best Response: PR and SD
  Weeks on Therapy: 28 Weeks and 18 Weeks
Refractory solid tumors; [11]
  Best Response: SD
  Weeks on Therapy: 16 Weeks
Refractory solid tumors; [12]
  Best Response: SD
  Weeks on Therapy: 18 Weeks
Refractory solid tumors; [13]
  Best Response: SD
  Weeks on Therapy: 24 Weeks
Refractory solid tumors; [14]
  Best Response: SD
  Weeks on Therapy: 33 Weeks
Refractory solid tumors; [15]
  Best Response: SD
  Weeks on Therapy: 18 Weeks
Refractory solid tumors; [16]
  Best Response: SD
  Weeks on Therapy: 46 Weeks
Refractory solid tumors; [17]
  Best Response: PR and SD
  Weeks on Therapy: 24 Weeks and 30 Weeks
Refractory solid tumors; [18]
  Best Response: SD
  Weeks on Therapy: 58 Weeks
Refractory solid tumors; [19]
  Best Response: SD
  Weeks on Therapy: 33 Weeks
Refractory solid tumors; [20]
  Best Response: SD
  Weeks on Therapy: 46 Weeks
Refractory solid tumors; study A (qwk×3)
  stable disease SD, range: 16-24 wks
Refractory solid tumors; study A (qwk×3), 21 patients
  patients that achieved partial response (PR): one patient
  patients that achieved stable disease SD: six
Refractory solid tumors; study B (q3wk), 41 patients
  patients with PR as best response: one PR
  patients with SD as best response: 11
p73 null cells
  decrease in SNS-595 sensitivity: more than 11 fold
HCT116 cells
  nuclear foci formation (gH2AX, pATM): leads to nuclear foci formation
[1]
  Timing of apoptosis: fraction of cell cycle to achieve 50% maximal caspase-3 activation: 0.35
[2]
  Sensitization, fold decrease in the EC50 for cytotoxicity (MTT): ATRFLOX: 1 fold
